Measured values: patent US9006241B2, “Pyrimidine derivatives” (Noviga Research AB, priority 2011, dated 2015)

How the values were obtained:
Format in all cases: cell-based
[1] = system: CCRF-CEM cancer cells - leukemia; assay: Fluorometric Microculture Cytotoxicity Assay (FMCA), CCRF-CEM; conditions: Homo sapiens, 72 h incubation
From the text: (§1) The Fluorometric Microculture Cytotoxicity Assay, FMCA (Larsson, R., et al.; Anticancer Res, 1989, 9, 1111-1119), is a three day non-clonogenic microplate-based cell viability assay used for measurement of the cytotoxic and/or cytostatic effect of compounds in vitro (Lindhagen, E. et al.; Nat. Protoc., 2008, 3, 1364-1369). FMCA represents a valuable method to measure cytotoxicity in a number of cell types, both cell lines and primary cells from patients (Larsson, R., et al.; Int. J. Cancer, 1992, 50, 177-185; Fridborg, H., et al.; Eur. J. Cancer, 1999. 35, 424-432; Dhar, S., et al.; Br. J. Cancer, 1996, 74, 888-896).
(§2) FMCA is based on the principle that fluorescein diacetate (FDA) is converted to the fluorescent probe fluorescein by esterases in the plasma membranes of living cells. For experiments, 96 or 384-well microplates are prepared with compounds and stored at −70° C. until use. Cells are then seeded into the drug-prepared plates and placed in an incubator for 72 h. On the last day of incubation, the plates are washed and a buffer containing FDA is added and incubated with the cells for 45 minutes. Finally the fluorescence per well is measured in a fluorometer and a Survival Index % (SI) for each compound-treated well is calculated with the equation: Compound-treated cells minus blank divided by control cells minus blank. A high SI-value indicates a large percentage of living cells and vice versa.
In subsequent experiments, compounds were tested, along with a number of approved cancer drugs (dasatinib, pazopanib, sorafenib, and sunitinib) as described above. Initially, the acute lymphoblastic leukemia cell line CCRF-CEM was used throughout. In the assay plates, medium was added to six empty wells (blank wells) and wells were filled with PBS and cell suspension and served as control wells. SI-values were then calculated for each compound-treated well as described above. All experiments were conducted twice and a new batch of plates was prepared for each experiment.
(§3) For dose-response experiments, 384-well plates were prepared as follows:
(§4) Compounds of the invention as well comparative kinase inhibitors sorafenib sunitinib, dasatinib, pazopanib and a reference compound disclosed in WO 2009/071535 (compound #107) were diluted with PBS to a concentration ten-times higher than the desired starting concentration. Then, a Biomek 2000 liquid handling system was employed to serially dilute the compounds in a deep-well 384-well plate. From this plate, assay plates containing 5 μl compound per well were prepared with the Biomek 2000. Certain compounds precipitated when diluted with PBS, and these compounds were therefore prepared in a 96-well plate manually as described above using culture medium RPMI 1640 instead of PBS.
(§5) The compounds were also tested at five concentrations, with five times serial dilution on the following cell types: CCRF-CEM, hTERT-RPE1 (normal retinal epithelial cells), hRPTEpiC (normal renal cells), and peripheral blood mononuclear cells (PBMC). Each experiment was performed three times, except for PBMC and hRPTEpiC, which were performed twice. SI-values were calculated, graphs were plotted using GraphPadPrism 5.0 (GraphPad Software Inc. La Jolla, Calif.) and IC50-values for each cell type and compound were determined from the curves.

[2] = system: CEM/VM1 (teniposide-resistant leukemia); assay: FMCA, CEM/VM1; conditions: Homo sapiens, CEM/VM1 teniposide-resistant leukemia cells
From the text: as §1, §2, §3, §4, §5
(§6) The compounds of the invention were also tested on further cancer cell lines related to breast cancer (MDA-MB-231; see e.g. Cailleau, R., et al.; J. Natl. Cancer Inst., 1974, 53, 661-674), teniposide-resistant leukemia (CEM/VM1 see e.g. Danks, M., et al.; Cancer Res., 1987, 47, 1297-1301), leukemia (HL-60; see e.g. Collins, S., et al.; Nature, 1977, 270, 347-349), doxorubicin-resistant lung cancer (H69AR; see e.g. Mirski, S., et al.; Cancer Res., 1987, 47, 2594-2598), myeloma (RPMI 8226; see e.g. Matsuoka, Y., et al.; Proc. Soc. Exp. Biol. Med., 1967, 125, 1246-1250), doxorubicin-resistant myeloma (8226/Dox40; see e.g. Dalton, W., et al.; Blood, 1989, 15, 747-752), lymphoma (U-937, see e.g. Sundström, C., et al.; Int. J. Cancer, 1976, 17, 565-577), vincristin-resistant lymphoma (U-937-vcr; see e.g. Botling, J., et al.; Int. J. Cancer, 1994, 58, 269-274), ovarian cancer (A2780; see e.g. Hamilton, T., et al.; Semin. Oncol., 1984, 11, 285-298), doxorubicin-resistant ovarian cancer (A2780/Adr), cisplatin-resistant ovarian cancer (A2780/Cis; see e.g. Behrens, B., et al. Cancer Res. 1987, 47, 414-418), pancreatic cancer (PANC-1, BxPC-3, and MIA PaCa-2; see e.g. Lieber, M., et al.; Int. J. Cancer, 1975, 15, 741-747; Loor, R., et al.; Clin. Lab. […]

[3] = system: H69AR (doxorubicin-resistant lung cancer); assay: FMCA, H69AR; conditions: Homo sapiens, H69AR doxorubicin-resistant lung cancer cells
From the text: as §1, §2, §3, §4, §5, §6

RPMI 8226 (myeloma) = assay: FMCA, RPMI 8226; conditions: Homo sapiens, RPMI 8226 myeloma cells
From the text: as §1, §2, §3, §4, §5, §6

[4] = system: 8226/Dox40 (doxorubicin-resistant myeloma); assay: FMCA, 8226/Dox40; conditions: 8226/Dox40 doxorubicin-resistant myeloma cells
From the text: as §1, §2, §3, §4, §5, §6

U-937 (lymphoma) = assay: FMCA, U-937; conditions: Homo sapiens, U-937 lymphoma cells
From the text: as §1, §2, §3, §4, §5, §6

[5] = system: U-937-vcr (vincristin-resistant lymphoma); assay: FMCA, U-937-vcr; conditions: U-937-vcr vincristin-resistant lymphoma cells
From the text: as §1, §2, §3, §4, §5, §6

A2780 (ovarian cancer) = assay: FMCA, A2780; conditions: Homo sapiens, A2780 ovarian cancer cells
From the text: as §1, §2, §3, §4, §5, §6

[6] = system: A2780/Adr (doxorubicin-resistant ovarian cancer); assay: FMCA, A2780/Adr; conditions: A2780/Adr doxorubicin-resistant ovarian cancer cells
From the text: as §1, §2, §3, §4, §5, §6

[7] = system: A2780/Cis (cisplatin-resistant ovarian cancer); assay: FMCA, A2780/Cis; conditions: A2780cis, A2780/Cis cisplatin-resistant ovarian cancer cells
From the text: as §1, §2, §3, §4, §5, §6

[8] = system: MDA-MB-231 (breast cancer); assay: FMCA, MDA-MB-231; conditions: Homo sapiens, MDA-MB-231 breast cancer cells
From the text: as §1, §2, §3, §4, §5
(§7) The compounds of the invention were also tested on further cancer cell lines related to breast cancer (MDA-MB-231; see e.g. Cailleau, R., et al.; J. Natl. Cancer Inst., 1974, 53, 661-674), teniposide-resistant leukemia (CEM/VM1 see e.g. Danks, M., et al.; Cancer Res., 1987, 47, 1297-1301), leukemia (HL-60; see e.g. Collins, S., et al.; Nature, 1977, 270, 347-349), doxorubicin-resistant lung cancer (H69AR; see e.g. Mirski, S., et al.; Cancer Res., 1987, 47, 2594-2598), myeloma (RPMI 8226; see e.g. Matsuoka, Y., et al.; Proc. Soc. Exp. Biol. Med., 1967, 125, 1246-1250), doxorubicin-resistant myeloma (8226/Dox40; see e.g. Dalton, W., et al.; Blood, 1989, 15, 747-752), lymphoma (U-937, see e.g. Sundström, C., et al.; Int. […]

HL-60 (leukemia) = assay: FMCA, HL-60; conditions: Homo sapiens, HL-60 leukemia cells
From the text: as §1, §2, §3, §4, §5, §7

[9] = system: BxPC-3 (pancreatic cancer); assay: FMCA, BxPC-3; conditions: Homo sapiens, BxPC-3 pancreatic cancer cells
From the text: as §1, §2, §3, §4, §5, §7

[10] = system: PANC-1 (pancreatic cancer); assay: FMCA, PANC-1; conditions: Homo sapiens, PANC-1 pancreatic cancer cells
From the text: as §1, §2, §3, §4, §5, §7

[11] = system: MIA PaCa-2 (pancreatic cancer); assay: FMCA, MIA PaCa-2; conditions: Homo sapiens, MIA PaCa-2 pancreatic cancer cells
From the text: as §1, §2, §3, §4, §5, §7

PC-3 (prostate cancer) = assay: FMCA, PC-3; conditions: PC-3 prostate cancer cells
From the text: as §1, §2, §3, §4, §5, §7

EC50 [2] | EC50 [3] | EC50 (RPMI 8226 (myeloma)) | EC50 [4] | EC50 (U-937 (lymphoma)) | EC50 [5] | EC50 (A2780 (ovarian cancer)) | EC50 [6] | EC50 [7] | EC50 [8] | EC50 (HL-60 (leukemia)) | EC50 [9] | EC50 [10] | EC50 [11] | EC50 (PC-3 (prostate cancer)) | Structure (SMILES) | EC50 [1]
51 nM | 200 nM | 210 nM | 280 nM | 73 nM | 44 nM | 110 nM | 440 nM | 63 nM | – | – | – | – | – | – | COc1ccc2[nH]cc(CCNc3nccc(Nc4ccc5[nH]c(C)c(C)c5c4)n3)c2c1 [Example 14, N^4-(2,3-dimethyl-1H-indol-5-yl)-N^2-[2-(5-methoxy-1H-indol-3-yl)ethyl]pyrimidine-2,4-diamine] | 21 nM
44 nM | 63 nM | 110 nM | 300 nM | 41 nM | 62 nM | 74 nM | 440 nM | 62 nM | – | – | – | – | – | – | COc1ccc2[nH]cc(CCNc3nc(C)cc(Nc4ccc5[nH]c(C)cc5c4)n3)c2c1 [Example 27, N^2-[2-(5-methoxy-1H-indol-3-yl)ethyl]-6-methyl-N^4-(2-methyl-1H-indol-5-yl)pyrimidine-2,4-diamine] | 19 nM
62 nM | 940 nM | 7800 nM | 30000 nM | 100 nM | 780 nM | 130 nM | 2000 nM | 230 nM | 1900 nM | 92 nM | 910 nM | 5200 nM | 31 nM | 2100 nM | COc1ccc2[nH]cc(CCNc3nccc(Nc4ccc5[nH]c(C)nc5c4)n3)c2c1 [Example 19, N^2-[2-(5-methoxy-1H-indol-3-yl)ethyl]-N^4-(2-methyl-1H-benzo[d]imidazol-5-yl)pyrimidine-2,4-diamine] | 32 nM
6.6 nM | 23 nM | 45 nM | 110 nM | 13 nM | 28 nM | 33 nM | 140 nM | 25 nM | 100 nM | 9.1 nM | 37 nM | 1600 nM | 14 nM | 240 nM | COc1ccc2[nH]cc(CCNc3nccc(Nc4ccc5[nH]c(C)cc5c4)n3)c2c1 [Example 4, N^2-[2-(5-methoxy-1H-indol-3-yl)ethyl]-N^4-(2-methyl-1H-indol-5-yl)pyrimidine-2,4-diamine] | 28 nM
38 nM | 120 nM | 120 nM | 180 nM | 30 nM | 29 nM | 64 nM | 330 nM | 73 nM | 380 nM | 20 nM | 130 nM | 860 nM | 54 nM | 380 nM | COc1ccc2[nH]cc(CCNc3nccc(Nc4ccc5c(c4)cc(C)n5C)n3)c2c1 [Example 13, N^4-(1,2-dimethyl-1H-indol-5-yl)-N^2-[2-(5-methoxy-1H-indol-3-yl)ethyl]pyrimidine-2,4-diamine] | 19 nM
71 nM | 120 nM | 1400 nM | 4300 nM | 37 nM | 69 nM | 55 nM | 980 nM | 96 nM | 150 nM | 31 nM | 120 nM | 1400 nM | 58 nM | 310 nM | COc1ccc2[nH]cc(CCNc3nccc(Nc4ccc5[nH]c(CO)cc5c4)n3)c2c1 [Example 15, (5-{2-[2-(5-methoxy-1H-indol-3-yl)ethylamino]pyrimidin-4-ylamino}-1H-indol-2-yl)methanol] | 27 nM
17 nM | 94 nM | 42 nM | 160 nM | 22 nM | 20 nM | 51 nM | 180 nM | 33 nM | 57 nM | 8.2 nM | 55 nM | 430 nM | 18 nM | 150 nM | CCOc1ccc2[nH]cc(CCNc3nccc(Nc4ccc5[nH]c(C)cc5c4)n3)c2c1 [Example 5, N^2-[2-(5-ethoxy-1H-indol-3-yl)ethyl]-N^4-(2-methyl-1H-indol-5-yl)pyrimidine-2,4-diamine] | 15 nM
64 nM | 170 nM | 170 nM | 200 nM | 80 nM | 46 nM | 210 nM | 820 nM | 200 nM | – | – | – | – | – | – | Cc1ccc2[nH]cc(CCNc3nccc(Nc4ccc5[nH]c(C)cc5c4)n3)c2c1 [Example 9, N^2-[2-(5-methyl-1H-indol-3-yl)ethyl]-N^4-(2-methyl-1H-indol-5-yl)pyrimidine-2,4-diamine] | 38 nM
